# From PMC7391683, “Two glyoxylate reductase isoforms are functionally redundant but required under high photorespiration conditions in rice” (BMC Plant Biology, 2020)
# T1: OsGR2 (Oryza sativa, UniProt Q656T5)
# T1 construct: gene Os01g0574600; subunit about 37 kDa on SDS-PAGE
# T1 sequence (Q656T5 45-341): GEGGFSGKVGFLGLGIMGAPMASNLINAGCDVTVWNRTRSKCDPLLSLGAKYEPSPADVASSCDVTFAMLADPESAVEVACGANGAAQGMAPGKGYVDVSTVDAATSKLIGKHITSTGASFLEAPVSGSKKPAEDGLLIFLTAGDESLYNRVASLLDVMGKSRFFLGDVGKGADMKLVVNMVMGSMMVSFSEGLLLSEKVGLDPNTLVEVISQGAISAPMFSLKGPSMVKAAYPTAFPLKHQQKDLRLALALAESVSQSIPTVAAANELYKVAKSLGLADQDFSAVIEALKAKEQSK
# T2: OsGR1 (Oryza sativa, UniProt Q84VC8)
# T2 construct: full-length, 6xHis-tag (pCold vector), E. coli Rosetta (DE3), Ni-IDA purified; subunit about 30 kDa on SDS-PAGE
# T2 sequence (Q84VC8 1-293): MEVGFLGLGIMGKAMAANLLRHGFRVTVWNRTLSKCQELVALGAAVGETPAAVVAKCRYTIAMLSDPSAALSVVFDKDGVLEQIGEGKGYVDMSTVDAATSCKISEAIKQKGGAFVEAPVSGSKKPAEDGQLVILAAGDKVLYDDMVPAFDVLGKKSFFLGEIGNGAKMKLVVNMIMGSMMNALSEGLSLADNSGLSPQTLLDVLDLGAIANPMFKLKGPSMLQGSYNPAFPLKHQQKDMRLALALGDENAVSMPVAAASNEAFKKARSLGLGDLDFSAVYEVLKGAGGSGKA
# Key:
# [1] = biological target: T1, OsGR2; assay: NADH oxidation, Lineweaver-Burk; format: biochemical; details: glyoxylate fixed, pH 7.4, 30 °C
# From the text: NADH oxidation, Lineweaver-Burk on OsGR2
# [2] = biological target: T1, OsGR2; assay: NADPH oxidation, Lineweaver-Burk; format: biochemical; details: pH 7.4, 30 °C
# From the text: NADPH oxidation, Lineweaver-Burk on OsGR2
# [3] = biological target: T2, OsGR1; assay: NAD(P)H oxidation; slopes of reciprocal plots against oxalate; format: biochemical; details: read-out: Ki(oxalate) (mM) / Glyoxylate as substrate NADPH as cofactor
# From the text: NAD(P)H oxidation; slopes of reciprocal plots against oxalate on OsGR1
# [4] = substrate: NC(=O)C1=CN([C@@H]2O[C@H](COP(=O)(O)OP(=O)(O)OC[C@H]3O[C@@H](n4cnc5c(N)ncnc54)[C@H](O)[C@@H]3O)[C@@H](O)[C@H]2O)C=CC1; assay: NADH oxidation, Lineweaver-Burk; format: biochemical, Oryza sativa; details: glyoxylate fixed, pH 7.4, 30 °C, varied: cofactor
# From the text: NADH oxidation, Lineweaver-Burk on OsGR1
# [5] = substrate: O=CC(=O)O; assay: NADPH oxidation, Lineweaver-Burk; format: biochemical, Oryza sativa; details: NADPH fixed, pH 7.4, 30 °C
# From the text: (§1) NADPH oxidation, Lineweaver-Burk on OsGR1
# [6] = substrate: NC(=O)C1=CN([C@@H]2O[C@H](COP(=O)(O)OP(=O)(O)OC[C@H]3O[C@@H](n4cnc5c(N)ncnc54)[C@H](OP(=O)(O)O)[C@@H]3O)[C@@H](O)[C@H]2O)C=CC1; assay: NADPH oxidation, Lineweaver-Burk; format: biochemical, Oryza sativa; details: glyoxylate fixed, pH 7.4, 30 °C, varied: cofactor
# From the text: as §1
molecule,measurement,setting,value
NC(=O)C1=CN([C@@H]2O[C@H](COP(=O)(O)OP(=O)(O)OC[C@H]3O[C@@H](n4cnc5c(N)ncnc54)[C@H](O)[C@@H]3O)[C@@H](O)[C@H]2O)C=CC1 [NADH],Km,[1],404 ± 66.5 µM
NC(=O)C1=CN([C@@H]2O[C@H](COP(=O)(O)OP(=O)(O)OC[C@H]3O[C@@H](n4cnc5c(N)ncnc54)[C@H](OP(=O)(O)O)[C@@H]3O)[C@@H](O)[C@H]2O)C=CC1 [NADPH],Km,[2]; glyoxylate fixed,53 ± 4.6 µM
O=CC(=O)O [glyoxylate],Km,[2]; NADPH fixed,72.1 ± 5.3 µM
O=C(O)C(=O)O [oxalate],Ki,[3],21.2 ± 4.3 mM
"OsGR1 (Oryza sativa Japonica Group) (protein, full-length, 6xHis-tag (pCold vector), E. coli Rosetta (DE3), Ni-IDA purified; subunit about 30 kDa on SDS-PAGE) MEVGFLGLGIMGKAMAANLLRHGFRVTVWNRTLSKCQELVALGAAVGETPAAVVAKCRYTIAMLSDPSAALSVVFDKDGVLEQIGEGKGYVDMSTVDAATSCKISEAIKQKGGAFVEAPVSGSKKPAEDGQLVILAAGDKVLYDDMVPAFDVLGKKSFFLGEIGNGAKMKLVVNMIMGSMMNALSEGLSLADNSGLSPQTLLDVLDLGAIANPMFKLKGPSMLQGSYNPAFPLKHQQKDMRLALALGDENAVSMPVAAASNEAFKKARSLGLGDLDFSAVYEVLKGAGGSGKA",Km,[4],420.2 ± 50.5 µM
same,Km,[5],30.4 ± 3.5 µM
same,Km,[6],17.6 ± 3.1 µM
